# Tested on: K562
# Experiment: Antiproliferative activity against human K562 cells assessed as cell growth at 10^-6 M after 48 hrs by sulforhodamine B assay
# Assay type: functional
# Conditions: K562, 48 h, read-out: Activity
row,Structure (SMILES),growth at 1 µM
1,CNC(=O)c1cc(Oc2ccc3nc(NC(=O)Nc4cc(C(F)(F)F)cc(C(F)(F)F)c4)sc3c2)ccn1,44%

# Tested on: T47D
# Experiment: Antiproliferative activity against human T47D cells assessed as cell growth at 10^-6 M after 48 hrs by sulforhodamine B assay
# Assay type: functional
# Conditions: read-out: Activity
row,Structure (SMILES),growth at 1 µM
1,CNC(=O)c1cc(Oc2ccc3nc(NC(=O)Nc4cc(C(F)(F)F)cc(C(F)(F)F)c4)sc3c2)ccn1,32%

# Tested on: SK-MEL-28
# Experiment: Antiproliferative activity against human SK-MEL-28 cells assessed as cell growth at 10^-7 M after 48 hrs by sulforhodamine B assay
# Assay type: functional
# Conditions: SK-MEL-28, 48 h, read-out: Activity
row,Structure (SMILES),growth at 0.1 µM
1,CNC(=O)c1cc(Oc2ccc3nc(NC(=O)Nc4cc(C(F)(F)F)cc(C(F)(F)F)c4)sc3c2)ccn1,96%

# Tested on: not listed separately
# Experiment: Antiproliferative activity against human LOXIMVI cells assessed as growth inhibition after 48 hrs by sulforhodamine B assay
# Assay type: functional
# Conditions: LOX IMVI
Structure (SMILES),GI50,TGI
CNC(=O)c1cc(Oc2ccc3nc(NC(=O)Nc4cc(C(F)(F)F)cc(C(F)(F)F)c4)sc3c2)ccn1,1210 nM,2530 nM

# Same assay, conditions: LOX IMVI, read-out: LC50 (the source's name)
row,Structure (SMILES),CC50
1,CNC(=O)c1cc(Oc2ccc3nc(NC(=O)Nc4cc(C(F)(F)F)cc(C(F)(F)F)c4)sc3c2)ccn1,5290 nM

# Tested on: not listed separately
# Experiment: Antiproliferative activity against human UO31 cells assessed as cell growth at 10^-4 M after 48 hrs by sulforhodamine B assay
# Assay type: functional
# Conditions: UO-31, 48 h, read-out: Activity
row,Structure (SMILES),growth at 100 µM
1,CNC(=O)c1cc(Oc2ccc3nc(NC(=O)Nc4cc(C(F)(F)F)cc(C(F)(F)F)c4)sc3c2)ccn1,-79%

# Tested on: not listed separately
# Experiment: Antiproliferative activity against human HCT15 cells assessed as cell growth at 10^-7 M after 48 hrs by sulforhodamine B assay
# Assay type: functional
# Conditions: HCT-15, 48 h, read-out: Activity
row,Structure (SMILES),growth at 0.1 µM
1,CNC(=O)c1cc(Oc2ccc3nc(NC(=O)Nc4cc(C(F)(F)F)cc(C(F)(F)F)c4)sc3c2)ccn1,100%

# Tested on: not listed separately
# Experiment: Antiproliferative activity against human HL-60(TB) cells assessed as cell growth at 10^-7 M after 48 hrs by sulforhodamine B assay
# Assay type: functional
# Conditions: HL-60, 48 h, read-out: Activity
row,Structure (SMILES),growth at 0.1 µM
1,CNC(=O)c1cc(Oc2ccc3nc(NC(=O)Nc4cc(C(F)(F)F)cc(C(F)(F)F)c4)sc3c2)ccn1,31%

# Tested on: not listed separately
# Experiment: Antiproliferative activity against human RXF393 cells assessed as cell growth at 10^-8 M after 48 hrs by sulforhodamine B assay
# Assay type: functional
# Conditions: RXF 393, 48 h, read-out: Activity
row,Structure (SMILES),growth at 0.01 µM
1,CNC(=O)c1cc(Oc2ccc3nc(NC(=O)Nc4cc(C(F)(F)F)cc(C(F)(F)F)c4)sc3c2)ccn1,89%

# Tested on: NCI-H322M
# Experiment: Antiproliferative activity against human NCI-H322M cells assessed as cell growth at 10^-6 M after 48 hrs by sulforhodamine B assay
# Assay type: functional
# Conditions: read-out: Activity
row,Structure (SMILES),growth at 1 µM
1,CNC(=O)c1cc(Oc2ccc3nc(NC(=O)Nc4cc(C(F)(F)F)cc(C(F)(F)F)c4)sc3c2)ccn1,73%

# Tested on: not listed separately
# Experiment: Antiproliferative activity against human BT549 cells assessed as growth inhibition after 48 hrs by sulforhodamine B assay
# Assay type: functional
# Conditions: BT-549, 48 h
Structure (SMILES),GI50,TGI
CNC(=O)c1cc(Oc2ccc3nc(NC(=O)Nc4cc(C(F)(F)F)cc(C(F)(F)F)c4)sc3c2)ccn1,1340 nM,3070 nM

# Same assay, conditions: BT-549, 48 h, read-out: LC50 (the source's name)
row,Structure (SMILES),CC50
1,CNC(=O)c1cc(Oc2ccc3nc(NC(=O)Nc4cc(C(F)(F)F)cc(C(F)(F)F)c4)sc3c2)ccn1,7050 nM

# Tested on: not listed separately
# Experiment: Antiproliferative activity against human SF539 cells assessed as cell growth at 10^-7 M after 48 hrs by sulforhodamine B assay
# Assay type: functional
# Conditions: SF-539, 48 h, read-out: Activity
row,Structure (SMILES),growth at 0.1 µM
1,CNC(=O)c1cc(Oc2ccc3nc(NC(=O)Nc4cc(C(F)(F)F)cc(C(F)(F)F)c4)sc3c2)ccn1,99%

# Tested on: ACHN
# Experiment: Antiproliferative activity against human ACHN cells assessed as cell growth at 10^-4 M after 48 hrs by sulforhodamine B assay
# Assay type: functional
# Conditions: read-out: Activity
row,Structure (SMILES),growth at 100 µM
1,CNC(=O)c1cc(Oc2ccc3nc(NC(=O)Nc4cc(C(F)(F)F)cc(C(F)(F)F)c4)sc3c2)ccn1,-80%

# Tested on: not listed separately
# Experiment: Antiproliferative activity against human TK10 cells assessed as cell growth at 10^-6 M after 48 hrs by sulforhodamine B assay
# Assay type: functional
# Conditions: TK-10, 48 h, read-out: Activity
row,Structure (SMILES),growth at 1 µM
1,CNC(=O)c1cc(Oc2ccc3nc(NC(=O)Nc4cc(C(F)(F)F)cc(C(F)(F)F)c4)sc3c2)ccn1,87%

# Tested on: not listed separately
# Experiment: Antiproliferative activity against human UACC62 cells assessed as cell growth at 10^-8 M after 48 hrs by sulforhodamine B assay
# Assay type: functional
# Conditions: UACC-62, 48 h, read-out: Activity
row,Structure (SMILES),growth at 0.01 µM
1,CNC(=O)c1cc(Oc2ccc3nc(NC(=O)Nc4cc(C(F)(F)F)cc(C(F)(F)F)c4)sc3c2)ccn1,93%

# Tested on: NCI-H460
# Experiment: Antiproliferative activity against human NCI-H460 cells assessed as cell growth at 10^-6 M after 48 hrs by sulforhodamine B assay
# Assay type: functional
# Conditions: NCI-H460, 48 h, read-out: Activity
row,Structure (SMILES),growth at 1 µM
1,CNC(=O)c1cc(Oc2ccc3nc(NC(=O)Nc4cc(C(F)(F)F)cc(C(F)(F)F)c4)sc3c2)ccn1,62%

# Tested on: 786-0
# Experiment: Antiproliferative activity against human 786-0 cells assessed as cell growth at 10^-8 M after 48 hrs by sulforhodamine B assay
# Assay type: functional
# Conditions: 786-0, 48 h, read-out: Activity
row,Structure (SMILES),growth at 0.01 µM
1,CNC(=O)c1cc(Oc2ccc3nc(NC(=O)Nc4cc(C(F)(F)F)cc(C(F)(F)F)c4)sc3c2)ccn1,92%

# Tested on: not listed separately
# Experiment: Antiproliferative activity against human OVCAR4 cells assessed as cell growth at 10^-7 M after 48 hrs by sulforhodamine B assay
# Assay type: functional
# Conditions: OVCAR-4, 48 h, read-out: Activity
row,Structure (SMILES),growth at 0.1 µM
1,CNC(=O)c1cc(Oc2ccc3nc(NC(=O)Nc4cc(C(F)(F)F)cc(C(F)(F)F)c4)sc3c2)ccn1,94%

# Tested on: not listed separately
# Experiment: Antiproliferative activity against human SKOV3 cells assessed as cell growth at 10^-4 M after 48 hrs by sulforhodamine B assay
# Assay type: functional
# Conditions: SK-OV-3, 48 h, read-out: Activity
row,Structure (SMILES),growth at 100 µM
1,CNC(=O)c1cc(Oc2ccc3nc(NC(=O)Nc4cc(C(F)(F)F)cc(C(F)(F)F)c4)sc3c2)ccn1,-84%

# Tested on: HT-29
# Experiment: Antiproliferative activity against human HT-29 cells assessed as cell growth at 10^-6 M after 48 hrs by sulforhodamine B assay
# Assay type: functional
# Conditions: HT-29, 48 h, read-out: Activity
row,Structure (SMILES),growth at 1 µM
1,CNC(=O)c1cc(Oc2ccc3nc(NC(=O)Nc4cc(C(F)(F)F)cc(C(F)(F)F)c4)sc3c2)ccn1,61%

# Tested on: SK-MEL-2
# Experiment: Antiproliferative activity against human SK-MEL-2 cells assessed as cell growth at 10^-8 M after 48 hrs by sulforhodamine B assay
# Assay type: functional
# Conditions: SK-MEL-2, 48 h, read-out: Activity
row,Structure (SMILES),growth at 0.01 µM
1,CNC(=O)c1cc(Oc2ccc3nc(NC(=O)Nc4cc(C(F)(F)F)cc(C(F)(F)F)c4)sc3c2)ccn1,90%
